Values of other authors as cited in patent US10744098B2, “Spray-dried solid-in-oil-in-water dispersions for inhalation of active pharmaceutical ingredients” (Novartis AG, priority 2014, dated 2020).

Target: β2-adrenoceptor (Homo sapiens, UniProt P07550)
Sequence (P07550 whole entry, species assumed): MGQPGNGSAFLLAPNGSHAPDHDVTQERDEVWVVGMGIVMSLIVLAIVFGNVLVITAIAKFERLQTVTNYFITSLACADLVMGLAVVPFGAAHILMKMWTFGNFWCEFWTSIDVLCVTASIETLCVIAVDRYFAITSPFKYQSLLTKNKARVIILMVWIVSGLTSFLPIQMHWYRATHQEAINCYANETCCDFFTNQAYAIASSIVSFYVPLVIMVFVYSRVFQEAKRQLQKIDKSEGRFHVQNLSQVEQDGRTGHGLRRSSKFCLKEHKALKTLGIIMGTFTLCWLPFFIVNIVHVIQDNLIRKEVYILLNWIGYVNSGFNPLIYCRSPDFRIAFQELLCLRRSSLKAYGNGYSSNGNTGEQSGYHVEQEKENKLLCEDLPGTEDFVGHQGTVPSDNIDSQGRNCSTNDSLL

For CCc1cc2c(cc1CC)CC(NC[C@H](O)c1ccc(O)c3[nH]c(=O)ccc13)C2 [indacaterol, (R)-5-[2-(5,6-diethyl-indan-2-ylamino)-1-hydroxyethyl]-8-hydroxy-1H-quinolin-2-one], the duration of action is listed as “over 24 hours” and the onset of action is listed as “about 10 minutes”.
